Common to all, as to assay type: in vivo
One data set relates to MES-induced seizures. The data set is described as follows: Maximal electroshock (MES) seizure test, mice (ASP, methylcellulose suspension). As for the experimental part:
SKA-19 was tested under the auspices of the National Institutes of Health's Anticonvulsant Screening Program (ASP). Experiments were performed in male albino CF (Carworth Farms) No. 1 mice or Sprague-Dawley rats according to the established protocols of the ASP (White et al., 2002). SKA-19 was suspended in 0.5% methylcellulose and administered in a volume that permits accuracy of dosage without excessively contributing to total body fluid (0.01 ml/g body weight for mice and 0.04 ml/10 g body weight for rats).
Animals received an electrical stimulus of 0.2 s duration (50 mA in mice and 150 mA in rat at 60 Hz) delivered via corneal electrodes primed with an electrolyte solution containing 0.5% tetracaine. Animals were restrained by hand and released immediately after stimulation to permit observation of the seizure throughout its entire course. In the initial screens to identify anticonvulsant activity mice were tested at 30 minutes and 4 hours following doses of 3, 10, 30, 100 and 300 mg/kg of SKA-19 and rats tested at time intervals between 0.25 and 4 hours following a standard oral dose of 30 mg/kg. In the subsequent, more quantitative tests at least four doses of SKA-19 (n=8 per dose) were tested at the previously determined time of peak effect (TPE). Abolition of hindlimb tonic extension indicates the test compound's ability to inhibit MES-induced seizure spread. Tonic extension is considered abolished if the hind limbs are not fully extended at 180° with the body.
A general note: Protection in the maximal electroshock model is a classic sign of anticonvulsant action.

A short description of data set [1]: Acute toxicity, rotorod test in mice. As to conditions: mouse, in vivo, ip, mice, i.p., suspension, read-out: TD50, ability of mice to stay on the rotorod. As for the experimental part:
(§1) Abnormal neurological status in mice following SKA-19 administration was evaluated with the rotorod test. When a normal mouse is placed on a rod 1 inch in diameter that rotates at a speed of 6 rpm, the mouse can maintain equilibrium for a long time. Inability of the mouse to stay on the rotating rod in three trials for 1 min is taken as an indication of motor impairment. […] Mice were placed on a horizontally oriented grid (consisting of parallel 1.5-mm diameter rods situated 1 cm apart), and the grid was inverted. Animals that fell from the grid within 10 s were scored as impaired.

The subject of data set [2] is mice. Description: Acute toxicity, rotorod test in mice. As for the experimental part:
as §1

Data set [3] in a line: Motor toxicity, horizontal screen test in mice. As to conditions: in vivo, ip, i.p. as solution, 10 min time point, read-out: TD50, neurological impairment (horizontal screen). How it is done:
as §1
(§2) The mouse maximal electroshock (MES) and 6 Hz seizure models were used. Motor toxicity was assessed using a modification of the horizontal screen test. ED50 values in the seizure models and TD50 values in the toxicity test were determined by nonlinear fitting of dose-response curves. […] Drugs solutions were injected intraperitoneally 10 min prior to administration of the electrical stimulus in a volume of 10 ml/kg body weight.

Data set [4] deals with mice. The data set is described as follows: Motor toxicity, horizontal screen test in mice. As to conditions: i.p. as solution, 10 min time point. As for the experimental part: as §1, §2
Another data set concerns 6 Hz seizures. Description: 6 Hz seizure test, compounds given i.p. as solution. As to conditions: Mus musculus, ip, 10 min, mice, values stated uncertain. How it is done:
as §2

Where [5] appears, read: ASP anticonvulsant testing, suspension in 0.5% methylcellulose.

These results are taken from US9675591B2, “Methods for treating seizure disorders and pain” (THE REGENTS OF THE UNIVERSITY OF CALIFORNIA, priority 2013, dated 2017).

Where two headings read alike, the source gives them in different places.

What is called ED50 is the dose that gives a 50% effect, or the effect in half of the subjects. In general, TD50 refers to the dose at which the toxic effect under study appears in half of the subjects. `Nc1nc2ccc(SC(F)(F)F)cc2s1` [SKA-19, 6-((trifluoromethyl)thio)benzo[d]thiazol-2-amine] returned a duration of activity with MES-induced seizures (setting [5]) of 4 h. Further, the “time of peak activity / maximal effect” value in the data set with MES-induced seizures (setting [5]) was in the range of 1 to 2 h. Besides, the ED50 was 4.8 mg/kg in the data set on MES-induced seizures (Mus musculus, ip, mice, i.p., methylcellulose suspension, time of peak effect (SKA-19: 2 h), read-out: ED50, seizure protection in the MES test) and 22.5 mg/kg in the data set with 6 Hz seizures. Further, the “protection in the MES model, initial screen” value is given as “partial protection” in the data set with MES-induced seizures (mice, i.p., 3 mg/kg); “fully protected” with MES-induced seizures (mice, i.p., 10, 30 and 100 mg/kg). In the data set on MES-induced seizures (mice, i.p., suspension), the “protective index PI (TD50/ED50)” value is reported as 6.2. In addition, the TD50 in data set [1] (CF No. 1 (Carworth Farms)) worked out at 29.8 mg/kg; in data set [1] it was 29.7 mg/kg. In data set [1] (albino CF No. 1 (Carworth Farms)), the TD50 at 2 h came out at 29.8 mg/kg. The “neurological deficit, rotorod” value with mice [2] (100 mg/kg) is on record as “inability to clasp the rotorod”. Also, the mice that died entry in the data set on mice [2] (100 mg/kg i.p.) was “two out of 8”. Besides, in the data set with mice [2] (300 mg/kg), the “neurological deficit / lethality” value is given as “sedation or death”. In the data set on mice [2] (0.5 and 4 hours after 3, 10 and 30 mg/kg), the “ability of mice to stay on the rotorod” value was “no impairment”. For the same compound, the TD50 at 10 min in data set [3] (CF-1, mouse) is 16.1 mg/kg; in data set [3] (mouse), 16.1 mg/kg. The “TD50, neurological impairment (horizontal screen)” value with mice [4] is recorded as 16.33 mg/kg.
